Measurements from the NIST ThermoML archive (doi:10.1016/j.fluid.2017.09.005).
Numbers after ± are expanded uncertainties.

Experiment: xn = mol fraction of the nth substance listed
Details: Liquid; for viscosity: Capillary tube (Ostwald / Ubbelohde) method; for mass density: Vibrating tube method

CCO [ethanol] + O
Details	mass density, 523.2 K [kg/m3]	mass density, 573.2 K [kg/m3]	mass density, 618.2 K [kg/m3]	viscosity, 523.2 K [mPa·s]	viscosity, 573.2 K [mPa·s]	viscosity, 618.2 K [mPa·s]
20000 kPa, x1 = 0.1	745.9 ± 3.2	649.3 ± 4.4	445.3 ± 6	0.12 ± 0.003	0.085 ± 0.003	0.054 ± 0.002
20000 kPa, x1 = 0.2	694.1 ± 2.8	585.4 ± 5.3	281.3 ± 6.6	0.119 ± 0.003	0.078 ± 0.003	0.035 ± 0.002
20000 kPa, x1 = 0.3	653.2 ± 3.6	534.9 ± 5.2	250.4 ± 6.9	0.114 ± 0.004	0.07 ± 0.003	0.031 ± 0.002
20000 kPa, x1 = 0.4	622.3 ± 3.5	494.9 ± 4.9	253.1 ± 6.4	0.109 ± 0.003	0.065 ± 0.003	0.032 ± 0.002
20000 kPa, x1 = 0.6	578.5 ± 3.6	446.2 ± 4.4	270.6 ± 5.3	0.099 ± 0.003	0.057 ± 0.002	0.035 ± 0.002
20000 kPa, x1 = 0.8	550.5 ± 3.5	426.2 ± 4.1	295 ± 4.7	0.092 ± 0.003	0.054 ± 0.002	0.038 ± 0.002
20000 kPa, x1 = 1	533.1 ± 3.3	421.1 ± 3.8	314.6 ± 4.3	0.087 ± 0.003	0.053 ± 0.002	0.039 ± 0.002
30000 kPa, x1 = 0.1	761.6 ± 3	674.8 ± 3.7	566.3 ± 4.5	0.126 ± 0.003	0.088 ± 0.003	0.072 ± 0.002
30000 kPa, x1 = 0.2	713.6 ± 3	621.4 ± 3.8	501.5 ± 4.9	0.127 ± 0.004	0.084 ± 0.003	0.065 ± 0.002
30000 kPa, x1 = 0.3	676.9 ± 3.1	582.5 ± 3.8	460.9 ± 4.9	0.125 ± 0.004	0.079 ± 0.003	0.059 ± 0.002
30000 kPa, x1 = 0.4	650.7 ± 3.1	553.5 ± 3.8	437.4 ± 4.7	0.119 ± 0.004	0.075 ± 0.003	0.057 ± 0.002
30000 kPa, x1 = 0.6	612.4 ± 3.1	517.6 ± 3.7	420.1 ± 4.4	0.113 ± 0.004	0.069 ± 0.002	0.055 ± 0.002
30000 kPa, x1 = 0.8	588.9 ± 3	499 ± 3.6	418.9 ± 4.1	0.107 ± 0.003	0.067 ± 0.002	0.055 ± 0.002
30000 kPa, x1 = 1	573.6 ± 2.9	491.5 ± 3.5	423.8 ± 4.1	0.103 ± 0.003	0.066 ± 0.002	0.055 ± 0.002
40000 kPa, x1 = 0.1	773.2 ± 2.9	694.9 ± 3.6	610.3 ± 4	0.132 ± 0.003	0.093 ± 0.003	0.081 ± 0.002
40000 kPa, x1 = 0.2	728.3 ± 2.9	647.6 ± 3.6	561 ± 4.3	0.132 ± 0.004	0.091 ± 0.003	0.076 ± 0.002
40000 kPa, x1 = 0.3	694.7 ± 3	614 ± 3.6	529.3 ± 4.1	0.134 ± 0.004	0.089 ± 0.003	0.073 ± 0.002
40000 kPa, x1 = 0.4	671.6 ± 3	587.9 ± 3.6	509.1 ± 4	0.128 ± 0.004	0.085 ± 0.003	0.07 ± 0.002
40000 kPa, x1 = 0.6	636.3 ± 3.1	557.4 ± 3.5	488.2 ± 3.9	0.124 ± 0.004	0.08 ± 0.003	0.067 ± 0.002
40000 kPa, x1 = 0.8	615.2 ± 2.8	540.4 ± 3.4	481.7 ± 3.9	0.119 ± 0.003	0.078 ± 0.002	0.067 ± 0.002
40000 kPa, x1 = 1	601.3 ± 2.8	531 ± 3.4	481.2 ± 3.8	0.115 ± 0.003	0.077 ± 0.002	0.067 ± 0.002

O [water] + CCCO
x2 = 0
Details	mass density, 523.2 K [kg/m3]	mass density, 573.2 K [kg/m3]	mass density, 618.2 K [kg/m3]	viscosity, 523.2 K [mPa·s]	viscosity, 573.2 K [mPa·s]	viscosity, 618.2 K [mPa·s]
20000 kPa	816.1 ± 2.8	734.8 ± 3.7	619.7 ± 4.4	0.11 ± 0.003	0.09 ± 0.002	0.072 ± 0.002
30000 kPa	825.5 ± 2.8	750.7 ± 3.5	656.9 ± 4.2	0.113 ± 0.003	0.093 ± 0.002	0.077 ± 0.002
40000 kPa	834.3 ± 2.7	764.4 ± 3.4	682.3 ± 4	0.115 ± 0.003	0.096 ± 0.002	0.081 ± 0.002
